# Target: T1, PotF (Escherichia coli, UniProt P31133, A182D/S87Y)
# T1 sequence (P31133 27-370 S87Y/A182D): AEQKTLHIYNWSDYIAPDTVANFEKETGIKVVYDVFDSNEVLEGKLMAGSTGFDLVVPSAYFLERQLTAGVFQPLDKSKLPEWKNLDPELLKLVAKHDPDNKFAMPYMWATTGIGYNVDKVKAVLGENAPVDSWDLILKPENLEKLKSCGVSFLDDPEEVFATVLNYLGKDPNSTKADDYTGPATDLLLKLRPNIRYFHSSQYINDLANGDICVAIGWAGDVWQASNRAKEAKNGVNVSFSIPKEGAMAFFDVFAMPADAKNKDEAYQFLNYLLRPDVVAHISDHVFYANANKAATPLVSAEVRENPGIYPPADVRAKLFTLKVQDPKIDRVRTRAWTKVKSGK
# Experiment: isothermal titration calorimetry; crystal structure of the complex solved here
# Type: binding
smiles,measurement,value
N=C(N)NCCCCN [agmatine],Kd,300 nM
